Assay results taken from US4179441A, “Fungidal and herbicidal 2-substituted-3-oxa-3aλ^4, 4-dithia-6-halo-1,5-diazapentalene” (Chevron Research Company, priority 1977, dated 1979).
Where two headings read alike, the source gives them in different places.

Experiments:
Alternaria solani = experiment: Tomato Early Blight; assay type: in vivo; settings: 288 h, read-out: Tomato Early blight % Control
Phytophthora infestans = experiment: whole plant or invertebrate; assay type: in vivo; settings: in Solanum lycopersicum, 168 h, read-out: Tomato Late Blight % Control
Botrytis cinerea = Botrytis cinerea control (detached horsebean leaves); assay type: in vivo; settings: 3 to 5 days
Experimental: Compounds of the invention were tested for Botrytis cinerea control using detached, well-developed primary leaves of a 4-6 week old horsebean plant. […] The leaves were allowed to dry while the filter paper was kept moist by adding water as required. The treated leaves were then inoculated with the spores of Botrytis cinerea fungus grown on potato. The plate was covered after inoculation and kept at 23.5° C. The filter-paper lining of the plate was kept saturated with water throughout the test. The rate of disease incidence was determined in 3 to 5 days, when the disease symptoms were fully evident on non-treated check leaves. […]

Erysiphe polygoni = experiment: Powdery Mildew (bean seedlings); assay type: in vivo; settings: 240 h, 250 ppm spray on bean seedlings, about 10 days, relative to untreated check plants
Excerpt: The powdery mildew test was made using bean seedlings (var. Bountiful) with well-developed primary leaves. The pathogen was Erysiphe polygoni. The bean seedlings were sprayed with a 250 ppm solution of the test compound in an acetone-water mixture containing a nonionic emulsifier. The treated plants were inoculated one day after spray application of the test compound with the pathogen. […] The rate of infection on the leaves was made after about 10 days. The percent disease control provided by a given test compound was based on the disease reduction relative to untreated check plants.

Rhizoctonia solani = experiment: Mycelia Inhibition; assay type: cell-based; settings: mycelial inhibition, 25° C., 24 hours
Pythium ultimum = experiment: Mycelia Inhibition; assay type: cell-based; settings: mycelial inhibition, 25° C., 24 hours
Septoria apii = settings: in vivo
Fusarium moniliforme = experiment: Mycelia Inhibition; assay type: cell-based; settings: mycelial inhibition, 25° C., 24 hours
Aspergillus niger = experiment: Mycelia Inhibition; assay type: cell-based; settings: mycelial inhibition, 25° C., 24 hours
[1] = 250 ppm spray, inoculated one day later, based on untreated check plants

| SMILES | pest or weed control at 250 ppm (Alternaria solani; [1]) [%] | pest or weed control at 250 ppm (Phytophthora infestans) [%] | Botrytis Cinerea, micrograms/cm^2 for 99% control of the fungus (Botrytis cinerea) [micrograms/cm^2] | pest or weed control at 250 ppm (Erysiphe polygoni) [%] | Rhizoctonia solani, micrograms/cm^2 for 99% control of the fungus (Rhizoctonia solani) [micrograms/cm^2] | Pythium ultimum, micrograms/cm^2 for 99% control of the fungus (Pythium ultimum) [micrograms/cm^2] | Celery Late Blight % Control (Septoria apii) [%] | Fusarium moniliforme, micrograms/cm^2 for 99% control of the fungus (Fusarium moniliforme) [micrograms/cm^2] | Aspergillus niger, micrograms/cm^2 for 99% control of the fungus (Aspergillus niger) [micrograms/cm^2] | pest or weed control at 250 ppm (Alternaria solani) [%] |
| --- | --- | --- | --- | --- | --- | --- | --- | --- | --- | --- |
| ClC1=NSS2=C1N=C(c1ccc(Cl)c(Cl)c1)O2 (stereo not drawn) [Compound 1] | 39 | 60 |  |  |  |  |  |  |  |  |
| Fc1ccccc1C1=NC2=S(O1)SN=C2Cl (stereo not drawn) [Compound 2] |  | 93 | 1.6 | 35 |  |  |  |  |  |  |
| ClC1=NSS2=C1N=C(c1ccc(Cl)cc1)O2 (stereo not drawn) [Compound 3] |  | 98 | 1.1 | 76 |  |  |  |  |  |  |
| FC(F)(F)c1cccc(C2=NC3=S(O2)SN=C3Cl)c1 (stereo not drawn) [Compound 4] |  |  |  | 80 | 0.65 | > 1.7 | 23 | > 1.7 | > 1.7 |  |
| ClCC1=NC2=S(O1)SN=C2Cl (stereo not drawn) [Compound 5, 2-chloromethyl-3-oxa-3aλ^4,4-dithia-6chloro-1,5-diazapentalene] | 73 | 81 |  |  | 0.38 | 0.12 |  | > 1.7 | 1.1 |  |
| ClC1=NSS2=C1N=C(c1ccccc1)O2 (stereo not drawn) [Compound 6] |  | 93 |  | 100 |  |  |  |  |  | 75 |
| O=[N+]([O-])c1ccc(C2=NC3=S(O2)SN=C3Cl)cc1 (stereo not drawn) [Compound 7] | 23 | 90 |  |  |  |  |  |  |  |  |
| ClC1=NSS2=C1N=C(c1ccco1)O2 (stereo not drawn) [Compound 8, 2-(2-furyl)-3-oxa-3aλ^4,4-dithia-6-chloro-1,5-diazapentalene] | 56 |  | 0.15 |  | 0.34 | 0.29 |  | 0.95 | 0.49 |  |
| ClC1=NSS2=C1N=C(CI)O2 (stereo not drawn) [Compound 9, 2-iodomethyl-3-oxa-3aλ^4,4-dithia-6-chloro-1,5-diazapentalene] | 81 | 62 | 0.37 |  | 0.6 | 0.12 | 71 | 0.82 | 0.52 |  |
| ClC1=NSS2=C1N=C(CSc1ccc(Cl)cc1)O2 (stereo not drawn) [Compound 10, 2-(4-chlorophenylthio-methyl)-3-oxa-3aλ^4,4-dithia-6-chloro-1,5-diazapentalene] |  | 81 |  |  | 1.2 | > 1.7 |  | > 1.7 | 0.52 |  |
| ClC1=NSS2=C1N=C(CSCc1ccc(Cl)cc1)O2 (stereo not drawn) [Compound 11] |  | 93 |  |  | 0.5 | > 1.7 |  | > 1.7 | 0.46 |  |
| ClC1=NSS2=C1N=C(c1cccs1)O2 (stereo not drawn) [Compound 12] | 68 | 89 | 1.4 | 54 | 0.5 | > 1.7 |  | > 1.7 | 1.2 |  |
